In brackets after ≈: the same amount, converted by molar mass. Activity calls are given as the source filed them. The rule behind the calls is not given here.
Columns and labels:
[1] = Plasma protein binding in mouse; type: ADME, cell-free; details: read-out: PPB (converted)
[2] = Aqueous solubility of the compound at pH 6.8; type: physicochemical
[3] = Octanol-water partition coefficient, log P of the compound; type: physicochemical
[4] = system: Mycobacterium tuberculosis; experiment: Antitubercular activity against Mycobacterium tuberculosis H37Rv ATCC 27294 […]; type: functional
[5] = Plasma protein binding in human; type: ADME, cell-free; details: read-out: PPB (converted)
[6] = AUC in mouse at 25 mg/kg, po; type: ADME, organism-based; design: dose 25 mg/kg, route oral; details: plasma
[7] = Cmax in mouse; type: ADME, organism-based; details: in vivo
[8] = target: T1, Nuclear receptor subfamily 1 group I member 2 (Homo sapiens, UniProt O75469); experiment: Induction of PXR-mediated CYP3A4 expression in human DPX2 cells after 24 hrs by luciferase reporter gene assay; type: cell-based; details: dpx2, 24 h
T1 sequence (O75469 whole entry): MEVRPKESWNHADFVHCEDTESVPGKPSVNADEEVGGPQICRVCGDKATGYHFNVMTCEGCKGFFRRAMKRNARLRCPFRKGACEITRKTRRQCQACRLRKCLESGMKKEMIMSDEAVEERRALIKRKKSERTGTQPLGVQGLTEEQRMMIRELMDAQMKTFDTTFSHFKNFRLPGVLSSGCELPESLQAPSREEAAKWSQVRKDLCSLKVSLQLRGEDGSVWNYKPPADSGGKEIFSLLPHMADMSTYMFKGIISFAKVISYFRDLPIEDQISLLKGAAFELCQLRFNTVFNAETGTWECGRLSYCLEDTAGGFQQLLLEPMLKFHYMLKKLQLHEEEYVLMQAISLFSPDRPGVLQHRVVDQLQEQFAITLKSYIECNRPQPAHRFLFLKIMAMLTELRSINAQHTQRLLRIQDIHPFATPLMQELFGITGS

[9] = target: Cytochrome P450 2C9 (Homo sapiens, UniProt P11712); experiment: Inhibition of CYP2C9 in human liver microsomes using diclofenac as substrate by LC-MS/MS analysis; type: ADME, Microsome
Sequence of Cytochrome P450 2C9 (P11712 whole entry): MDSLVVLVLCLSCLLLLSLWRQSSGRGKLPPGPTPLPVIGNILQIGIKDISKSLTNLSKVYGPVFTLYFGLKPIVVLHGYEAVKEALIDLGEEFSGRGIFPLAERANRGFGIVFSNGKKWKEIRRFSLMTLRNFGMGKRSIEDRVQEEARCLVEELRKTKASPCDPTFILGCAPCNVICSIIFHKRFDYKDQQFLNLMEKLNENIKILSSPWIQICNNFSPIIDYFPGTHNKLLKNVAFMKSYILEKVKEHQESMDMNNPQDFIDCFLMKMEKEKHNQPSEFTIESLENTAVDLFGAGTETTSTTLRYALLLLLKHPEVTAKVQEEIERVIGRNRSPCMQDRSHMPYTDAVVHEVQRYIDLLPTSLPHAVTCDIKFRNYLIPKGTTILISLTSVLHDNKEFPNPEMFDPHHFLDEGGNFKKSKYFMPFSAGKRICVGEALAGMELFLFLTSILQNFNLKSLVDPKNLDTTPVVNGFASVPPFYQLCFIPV

[10] = Oral bioavailability in mouse at 25 mg/kg; type: ADME, organism-based; details: in vivo
[11] = Cmax in mouse at 25 mg/kg, po; type: ADME, organism-based; design: dose 25 mg/kg, route oral; details: in vivo
[12] = system: Mycobacterium tuberculosis; experiment: Bactericidal activity against Mycobacterium tuberculosis H37Rv ATCC 27294 infected in activated human THP1 cells; type: functional, organism-based; details: THP-1
[13] = target: Cytochrome P450 3A4 (Homo sapiens, UniProt P08684); experiment: Inhibition of CYP3A4 in human liver microsomes using midazolam as substrate by LC-MS/MS analysis; type: ADME, Microsome
Sequence of Cytochrome P450 3A4 (P08684 whole entry): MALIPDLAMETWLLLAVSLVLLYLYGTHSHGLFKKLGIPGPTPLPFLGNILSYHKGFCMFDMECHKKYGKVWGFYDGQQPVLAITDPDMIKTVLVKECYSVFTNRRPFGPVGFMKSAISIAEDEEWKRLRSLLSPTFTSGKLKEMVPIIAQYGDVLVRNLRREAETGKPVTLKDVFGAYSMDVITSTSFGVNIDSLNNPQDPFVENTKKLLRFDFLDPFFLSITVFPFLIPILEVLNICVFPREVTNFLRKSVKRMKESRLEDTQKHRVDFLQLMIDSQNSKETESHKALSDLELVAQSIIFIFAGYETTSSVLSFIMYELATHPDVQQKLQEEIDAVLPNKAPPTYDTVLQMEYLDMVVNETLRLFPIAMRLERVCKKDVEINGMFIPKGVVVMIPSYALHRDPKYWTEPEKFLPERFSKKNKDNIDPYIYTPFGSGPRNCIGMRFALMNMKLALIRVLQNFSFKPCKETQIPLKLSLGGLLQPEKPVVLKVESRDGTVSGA

[14] = target: Cytochrome P450 3A5 (Homo sapiens, UniProt P20815); experiment: Inhibition of CYP3A5 in human liver microsomes using midazolam as substrate by LC-MS/MS analysis; type: ADME, Microsome
Sequence of Cytochrome P450 3A5 (P20815 whole entry): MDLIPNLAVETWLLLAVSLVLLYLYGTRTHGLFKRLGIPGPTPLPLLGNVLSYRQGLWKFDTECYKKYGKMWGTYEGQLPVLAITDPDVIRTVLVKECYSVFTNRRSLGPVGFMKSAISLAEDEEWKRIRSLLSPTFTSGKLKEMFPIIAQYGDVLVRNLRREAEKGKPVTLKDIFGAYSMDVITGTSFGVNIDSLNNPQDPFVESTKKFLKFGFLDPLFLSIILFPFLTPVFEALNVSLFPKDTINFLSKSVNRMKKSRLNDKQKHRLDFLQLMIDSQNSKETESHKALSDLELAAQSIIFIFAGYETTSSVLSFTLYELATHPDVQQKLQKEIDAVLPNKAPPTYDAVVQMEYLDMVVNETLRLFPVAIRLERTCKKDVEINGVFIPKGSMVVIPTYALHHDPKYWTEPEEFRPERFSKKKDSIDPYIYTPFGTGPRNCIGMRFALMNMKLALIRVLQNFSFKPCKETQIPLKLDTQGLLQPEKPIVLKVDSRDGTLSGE

[15] = AUC in mouse; type: ADME, organism-based; details: plasma
[16] = target: Cytochrome P450 2D6 (Homo sapiens, UniProt P10635); experiment: Inhibition of CYP2D6 in human liver microsomes using bufuralol as substrate by LC-MS/MS analysis; type: ADME, Microsome
Sequence of Cytochrome P450 2D6 (P10635 whole entry): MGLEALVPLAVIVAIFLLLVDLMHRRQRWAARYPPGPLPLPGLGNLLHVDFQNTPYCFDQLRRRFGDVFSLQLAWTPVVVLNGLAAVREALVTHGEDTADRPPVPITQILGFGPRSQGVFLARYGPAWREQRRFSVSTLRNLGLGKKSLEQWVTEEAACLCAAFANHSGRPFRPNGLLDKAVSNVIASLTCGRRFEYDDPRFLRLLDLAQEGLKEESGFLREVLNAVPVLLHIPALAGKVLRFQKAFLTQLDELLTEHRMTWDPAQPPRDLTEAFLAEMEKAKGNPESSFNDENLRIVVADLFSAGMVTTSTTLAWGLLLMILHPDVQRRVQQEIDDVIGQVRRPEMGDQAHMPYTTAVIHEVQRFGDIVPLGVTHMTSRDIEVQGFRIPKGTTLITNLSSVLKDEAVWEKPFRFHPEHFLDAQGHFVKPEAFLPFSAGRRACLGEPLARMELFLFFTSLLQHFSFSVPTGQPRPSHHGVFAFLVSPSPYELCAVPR

[17] = Elimination half life in mouse at 5 mg/kg, iv; type: ADME, organism-based; design: dose 5 mg/kg, route intravenous; details: in vivo, read-out: beta t1/2 (converted)
[18] = Ratio of AUC in mouse lung to AUC in mouse plasma at 25 mg/kg, po; type: ADME, organism-based; design: dose 25 mg/kg, route oral; details: read-out: Ratio AUC
[19] = Ratio of Cmax in mouse lung to Cmax in mouse plasma at 25 mg/kg, po; type: ADME, organism-based; design: dose 25 mg/kg, route oral
[20] = Clearance in mouse at 5 mg/kg, iv; type: ADME, organism-based; design: dose 5 mg/kg, route intravenous; details: in vivo
[21] = Volume of distribution at steady state in mouse at 5 mg/kg, iv; type: ADME, organism-based; design: dose 5 mg/kg, route intravenous; details: in vivo, read-out: Vdss
[22] = system: Mycobacterium tuberculosis; experiment: Antitubercular activity against Mycobacterium tuberculosis infected in BALB/c mouse assessed as reduction in log10CFU at 100 mg/kg, po qd administered 7 days post-infection for 28 days relative to control; type: functional
[23] = Clearance in mouse liver microsomes; type: ADME, Microsome; details: read-out: CLH
[24] = Cmax in mouse at 200 mg/kg, po; type: ADME, organism-based; design: dose 200 mg/kg, route oral; details: in vivo
[25] = AUC in mouse at 200 mg/kg, po; type: ADME, organism-based; design: dose 200 mg/kg, route oral; details: plasma

Row | Structure (SMILES) | fraction unbound [1] | solubility [2] [µM] | logP [3] | MIC [4] [µM] | fraction unbound [5] | AUC [6] [µM·h] | Activity [8] | inhibition (INH) [9] | bioavailability [10] [%] | Cmax [11] [µM] | inhibition (INH) [13] | inhibition (INH) [14] | inhibition (INH) [16] | half-life [17] [h] | Kp [18] | Kp [19] | clearance [20] [mL/min/kg] | Vd [21] [L/kg] | microsomal CLint [23] [µL/min/mg] | Activity [22] | also measured
1 | COCCOc1ccc([C@H]2C[C@@H](C(F)(F)F)n3ncc(C(=O)NCc4ccc(F)cn4)c3N2)cc1 | 0.108 | 20 (≈ 9.87 µg/mL) | 3.2 | 3.7 (≈ 1.83 µg/mL) | 0.122 | – | – | – | – | – | – | – | – | – | – | – | – | – | – | – | –
2 | Cc1ccc([C@H]2C[C@@H](C(F)(F)F)n3ncc(C(=O)NCc4ccc(F)cn4)c3N2)cc1 | < 0.01 | < 4 | 4.9 | 0.83 (≈ 0.36 µg/mL) | 0.01 | – | – | – | – | – | – | – | – | – | – | – | – | – | – | – | –
3 | COCCOc1ccc([C@H]2C[C@@H](C(F)(F)F)n3ncc(C(=O)NCc4ccc(F)cc4)c3N2)cc1 | 0.015 | 6 (≈ 2.95 µg/mL) | 4.1 | 0.44 (≈ 0.217 µg/mL) | 0.019 | – | – | – | – | – | – | – | – | – | – | – | – | – | – | – | –
4 | COc1ccc(CNC(=O)c2cnn3c2N[C@@H](c2ccc(C)cc2)C[C@H]3C(F)(F)F)cn1 | < 0.01 | < 4 | 5.1 | 0.47 (≈ 0.209 µg/mL) | < 0.01 | – | – | – | – | – | – | – | – | – | – | – | – | – | – | – | –
5 | Cc1ccc([C@H]2C[C@@H](C(F)(F)F)n3ncc(C(=O)NCc4ccc(F)cc4)c3N2)cc1 | < 0.01 | < 4 | 6.3 | 0.15 (≈ 0.0649 µg/mL) | < 0.01 | 18.9 | Not Active | Not Active | 65 | 3.6 | Not Active | Not Active | Not Active | 4.2 | 4.5 | 3.2 | 31 | 6.3 | 43.5 | – | Cmax [7]: 8.3 µM; Activity [12]: Active; AUC [15]: 91.1 µM·h; log10cfu [22]: 3.5
6 | CC[C@@H](CO)NCCN[C@@H](CC)CO | – | – | – | – | – | – | – | – | – | – | – | – | – | – | – | – | – | – | – | Active | –
7 | Cc1ccc([C@H]2C[C@@H](C(F)F)n3ncc(C(=O)NCc4ccc(F)cc4)c3N2)nc1 | 0.052 | 212 (≈ 88.1 µg/mL) | 4.6 | 0.6 (≈ 0.249 µg/mL) | 0.043 | 16.8 | Not Active | Not Active | 53 | 5.5 | Not Active | Not Active | Not Active | 1.8 | 2.8 | 1.7 | 24 | 2.6 | 85.6 | inactive | Cmax [24]: 15.2 µM; AUC [25]: 77.7 µM·h
8 | O=C(NCc1ccc(F)cc1)c1cnn2c1N[C@@H](c1ccc(OC3COC3)cc1)C[C@H]2C(F)(F)F | 0.024 | 9 (≈ 4.41 µg/mL) | 5.1 | 0.73 (≈ 0.358 µg/mL) | 0.027 | 41.7 | Not Active | Not Active | 52 | 3.7 | Not Active | Not Active | Not Active | 4.1 | 2.2 | 2.7 | 9.9 | 2.5 | 8.92 | inactive | Cmax [24]: 7.3 µM; AUC [25]: 71.3 µM·h
9 | Cc1ccc([C@H]2C[C@@H](C(F)(F)F)n3ncc(C(=O)NCc4ccc(F)cn4)c3N2)nc1 | 0.128 | 347 (≈ 151 µg/mL) | 3.2 | 52.2 (≈ 22.7 µg/mL) | 0.181 | – | – | – | – | – | – | – | – | – | – | – | – | – | – | – | –
10 | O=C(NCc1ccc(F)cc1)c1cnn2c1N[C@@H](c1ccc(N3CCOCC3)cc1)C[C@H]2C(F)(F)F | 0.016 | < 4 | 4.8 | 0.87 (≈ 0.438 µg/mL) | 0.018 | – | – | – | – | – | – | – | – | – | – | – | – | – | – | – | –
11 | Cc1ccc([C@H]2C[C@@H](C(F)(F)F)n3ncc(C(=O)NCc4ccc(F)cc4)c3N2)o1 | < 0.01 | < 4 | 5.5 | 0.13 (≈ 0.0549 µg/mL) | < 0.01 | – | – | – | – | – | – | – | – | – | – | – | – | – | – | – | –
12 | Cc1ccc([C@H]2C[C@@H](C(F)(F)F)n3ncc(C(=O)NCc4ccc(F)cc4)c3N2)nc1 | 0.042 | 9 (≈ 3.9 µg/mL) | 4.4 | 0.44 (≈ 0.191 µg/mL) | 0.039 | 25 | Not Active | Not Active | 100 | 3.6 | Not Active | Not Active | Not Active | 1.3 | 2.1 | 1.9 | 38 | 3.4 | 71.8 | inactive | Cmax [24]: 11.8 µM; AUC [25]: 91.9 µM·h

Source: ChEMBL document CHEMBL2384956, “Discovery of tetrahydropyrazolopyrimidine carboxamide derivatives as potent and orally active antitubercular agents” (ACS Med Chem Lett, 2013)
